A word on the IC50: it is the concentration that gives 50% inhibition.

Where two headings read alike, the source gives them in different places.

In this assay the target is Protein arginine deiminase 4 (PAD4) (Homo sapiens, UniProt Q9UM07). Nature of the assay: PAD4 ammonia release assay. The assay is classed as biochemical. The method, boiled down: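 Ammonia release from BAEE substrate (2× mix 600 μM) was measured after 60 min at RT, following 15 min enzyme–compound preincubation (PAD4 2× 20 nM; pH 8.0 HEPES, 2 mM CaCl2, TCEP; 1.25% DMSO). Detection used OPA/DTT/EDTA for 120 min. % inhibition was taken versus reference-compound and DMSO controls; IC50 by four-parameter logistic fit.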
Chain of Protein arginine deiminase 4 (PAD4) (Q9UM07 whole entry): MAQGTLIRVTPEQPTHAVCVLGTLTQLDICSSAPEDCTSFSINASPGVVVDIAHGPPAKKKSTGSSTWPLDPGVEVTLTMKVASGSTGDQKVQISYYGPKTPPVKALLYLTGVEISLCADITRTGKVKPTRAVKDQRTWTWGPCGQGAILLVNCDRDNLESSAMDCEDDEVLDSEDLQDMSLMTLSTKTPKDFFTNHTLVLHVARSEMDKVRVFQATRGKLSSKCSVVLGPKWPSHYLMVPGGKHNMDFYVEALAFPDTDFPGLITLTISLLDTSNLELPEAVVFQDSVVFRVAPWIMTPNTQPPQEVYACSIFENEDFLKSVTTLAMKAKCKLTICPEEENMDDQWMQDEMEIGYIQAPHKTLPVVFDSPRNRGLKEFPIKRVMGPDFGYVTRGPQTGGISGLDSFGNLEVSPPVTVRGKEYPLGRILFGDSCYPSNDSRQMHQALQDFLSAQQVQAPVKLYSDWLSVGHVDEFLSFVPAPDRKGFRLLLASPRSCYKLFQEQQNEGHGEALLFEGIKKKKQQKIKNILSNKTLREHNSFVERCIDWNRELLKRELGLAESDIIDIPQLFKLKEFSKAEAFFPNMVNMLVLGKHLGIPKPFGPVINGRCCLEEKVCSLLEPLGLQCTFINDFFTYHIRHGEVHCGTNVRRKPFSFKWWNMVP

Setting [1] is: PAD4 ammonia release assay, BAEE substrate, 60 min at RT, read-out: Average IC50 Abs.

For `CCC1CN(CC(C)(C)CO)c2cccc3cc(-c4nc5cc(C(=O)N6C[C@H]7CC[C@@H]6[C@@H]7N)cc(F)c5n4C)n1c23` (stereo partly drawn) [Example 89, ((1R,4R,7R)-7-amino-2-azabicyclo[2.2.1]heptan-2-yl)(2-(3-ethyl-1-(3-hydroxy-2,2-dimethylpropyl)-2,3-dihydro-1H-pyrrolo[1,2,3-de]quinoxalin-5-yl)-7-fluoro-1-methyl-1H-benzo[d]imidazol-5-yl)methanone], the half-maximal inhibitory concentration (IC50) under setting [1] was in the range of 100 to 500 nM.

Turning to `C#CCn1c(-c2cc3cccc4c3n2C(CC)CN4CCCO)nc2cc(C(=O)N3C[C@H]4CC[C@@H]3[C@@H]4N)cc(OC)c21` (stereo partly drawn) [Example 90, ((1R,4R,7R)-7-amino-2-azabicyclo[2.2.1]heptan-2-yl)(2-(3-ethyl-1-(3-hydroxypropyl)-2,3-dihydro-1H-pyrrolo[1,2,3-de]quinoxalin-5-yl)-7-methoxy-1-(prop-2-yn-1-yl)-1H-benzo[d]imidazol-5-yl)methanone], the IC50 under setting [1] was in the range of 100 to 500 nM. With `CCC1CN(CCCO)c2cccc3cc(-c4nc5cc(C(=O)N6C[C@H]7CC[C@@H]6[C@@H]7N)cc(F)c5n4Cc4ccco4)n1c23` (stereo partly drawn) [Example 93, ((1R,4R,7R)-7-amino-2-azabicyclo[2.2.1]heptan-2-yl)(2-(3-ethyl-1-(3-hydroxypropyl)-2,3-dihydro-1H-pyrrolo[1,2,3-de]quinoxalin-5-yl)-7-fluoro-1-(furan-2-ylmethyl)-1H-benzo[d]imidazol-5-yl)methanone], under setting [1], the IC50 was 100 to 500 nM. On to `CC[C@@H]1CN(CCCO)c2cccc3cc(-c4nc5cc(C(=O)N6C[C@H]7CC[C@@H]6[C@@H]7N)cc(F)c5n4CC)n1c23` [Example 97, ((1R,4R,7R)-7-amino-2-azabicyclo[2.2.1]heptan-2-yl)(1-ethyl-2-((R)-3-ethyl-1-(3-hydroxypropyl)-2,3-dihydro-1H-pyrrolo[1,2,3-de]quinoxalin-5-yl)-7-fluoro-1H-benzo[d]imidazol-5-yl)methanone], for which the 50% inhibitory concentration (IC50) under setting [1] was over 5000 nM. Consider `CC[C@H]1CN(CCCO)c2cccc3cc(-c4nc5cc(C(=O)N6C[C@H]7CC[C@@H]6[C@@H]7N)cc(F)c5n4CC)n1c23` [Example 98, ((1R,4R,7R)-7-amino-2-azabicyclo[2.2.1]heptan-2-yl)(1-ethyl-2-((S)-3-ethyl-1-(3-hydroxypropyl)-2,3-dihydro-1H-pyrrolo[1,2,3-de]quinoxalin-5-yl)-7-fluoro-1H-benzo[d]imidazol-5-yl)methanone], for which the IC50 under setting [1] is at most 100 nM. In addition, for the setting “SFC-separated stereoisomer pairs”, the “relative potency of separated isomers in the PAD4 biochemical assay” value is reported as “more potent than Example 97”. As to `CCC1CN(CCCO)c2cccc3cc(-c4nc5cc(C(=O)N6C[C@H](N)C[C@@H](F)C6)cc(F)c5n4CC)n1c23` (stereo partly drawn) [Example 99, ((3R,5R)-3-amino-5-fluoropiperidin-1-yl)(1-ethyl-2-(3-ethyl-1-(3-hydroxypropyl)-2,3-dihydro-1H-pyrrolo[1,2,3-de]quinoxalin-5-yl)-7-fluoro-1H-benzo[d]imidazol-5-yl)methanone], the IC50 under setting [1] is 100 to 500 nM. In the case of `CCC1CNc2cccc3cc(-c4nc5cc(C(=O)N6C[C@H]7CC[C@@H]6[C@@H]7N)cc(OC)c5n4C)n1c23` (stereo partly drawn) [Example 102, ((1R,4R,7R)-7-amino-2-azabicyclo[2.2.1]heptan-2-yl)(2-(3-ethyl-2,3-dihydro-1H-pyrrolo[1,2,3-de]quinoxalin-5-yl)-7-methoxy-1-methyl-1H-benzo[d]imidazol-5-yl)methanone], the half-maximal inhibitory concentration (IC50) is 207 nM (PAD4 activity comparison, read-out: PAD4 Ammonia assay IC50) and 100 to 500 nM under setting [1]. With `CC(C)[C@@H]1CNc2cccc3cc(-c4nc5cc(C(=O)N6C[C@H]7CC[C@@H]6[C@@H]7N)cc(F)c5n4C)n1c23` [Example 105, ((1R,4R,7R)-7-amino-2-azabicyclo[2.2.1]heptan-2-yl)(7-fluoro-2-((R)-3-isopropyl-2,3-dihydro-1H-pyrrolo[1,2,3-de]quinoxalin-5-yl)-1-methyl-1H-benzo[d]imidazol-5-yl)methanone], the 50% inhibitory concentration (IC50) under setting [1] fell in the range of 500 to 5000 nM.

The values above are taken from patent publication US20250136607A1 (REGOR PHARMACEUTICALS, INC., priority 2021, published 2025).
